{"source": "paper PMC5224920", "about": "“Assessing the mechanism and therapeutic potential of modulators of the human Mediator complex-associated protein kinases” (eLife, 2016)", "test_system": "12 single or co-culture in vitro tissue models of primary cells", "assay": "Culture/co-culture cell model panel, extracellular biomarkers (DiscoveRx); for CCL2/MCP-1: reference of the scale not given here; for CD40: reference of the scale not given here; for CD69: reference of the scale not given here; for CXCL8/IL-8: reference of the scale not given here; for IL-1alpha: reference of the scale not given here; for M-CSF: reference of the scale not given here", "assay_type": "cell-based, human", "details": "for CCL2/MCP-1 / CCL3/MIP-1alpha / CD40 / CD62E/E-Selectin / CD69 / CD106/VCAM-1 / CXCL8/IL-8 / IL-1alpha / M-CSF / SRB / SRB-Mphg / sIL-10: /Mphg Huvec+macrophages", "data": [{"smiles": "Cc1n[nH]c2ncc(C(=O)N3CCC[C@H]3c3ccc(Cl)cc3)cc12", "note": "[CMPD4]", "values": [{"measurement": "Collagen I", "setting": "/HDFNo, 4.57E0 nM", "value": -0.029}, {"measurement": "Collagen III", "setting": "/HDFNo, 4.57E0 nM", "value": 0.064}, {"measurement": "CCL2/MCP-1", "setting": "1.00E4 nM", "value": -0.014}, {"measurement": "CCL3/MIP-1alpha", "setting": "1.00E4 nM", "value": 0.020}, {"measurement": "CD40", "setting": "1.00E4 nM", "value": 0.064}, {"measurement": "CD62E/E-Selectin", "setting": "1.00E4 nM", "value": -0.080}, {"measurement": "CD69", "setting": "1.00E4 nM", "value": 0.239}, {"measurement": "CD106/VCAM-1", "setting": "1.00E4 nM", "value": 0.005}, {"measurement": "CXCL8/IL-8", "setting": "1.00E4 nM", "value": 0.133}, {"measurement": "IL-1alpha", "setting": "1.00E4 nM", "value": -0.065}, {"measurement": "M-CSF", "setting": "1.00E4 nM", "value": 0.054}, {"measurement": "SRB", "setting": "1.00E4 nM", "value": -0.016}, {"measurement": "SRB-Mphg", "setting": "1.00E4 nM", "value": 0.00054}, {"measurement": "sIL-10", "setting": "1.00E4 nM", "value": -0.061}, {"measurement": "CCL2/MCP-1", "setting": "1.11E3 nM", "value": -0.111}, {"measurement": "CCL3/MIP-1alpha", "setting": "1.11E3 nM", "value": -0.011}, {"measurement": "CD40", "setting": "1.11E3 nM", "value": 0.027}, {"measurement": "CD62E/E-Selectin", "setting": "1.11E3 nM", "value": -0.087}, {"measurement": "CD69", "setting": "1.11E3 nM", "value": 0.187}, {"measurement": "CD106/VCAM-1", "setting": "1.11E3 nM", "value": -0.0013}, {"measurement": "CXCL8/IL-8", "setting": "1.11E3 nM", "value": 0.008}, {"measurement": "IL-1alpha", "setting": "1.11E3 nM", "value": -0.048}, {"measurement": "M-CSF", "setting": "1.11E3 nM", "value": -0.024}, {"measurement": "SRB", "setting": "1.11E3 nM", "value": -0.010}, {"measurement": "SRB-Mphg", "setting": "1.11E3 nM", "value": -0.020}, {"measurement": "sIL-10", "setting": "1.11E3 nM", "value": -0.122}, {"measurement": "CCL2/MCP-1", "setting": "1.23E2 nM", "value": -0.109}, {"measurement": "CCL3/MIP-1alpha", "setting": "1.23E2 nM", "value": 0.015}, {"measurement": "CD40", "setting": "1.23E2 nM", "value": -0.002}, {"measurement": "CD62E/E-Selectin", "setting": "1.23E2 nM", "value": -0.108}, {"measurement": "CD69", "setting": "1.23E2 nM", "value": 0.181}, {"measurement": "CD106/VCAM-1", "setting": "1.23E2 nM", "value": 0.017}, {"measurement": "CXCL8/IL-8", "setting": "1.23E2 nM", "value": 0.014}, {"measurement": "IL-1alpha", "setting": "1.23E2 nM", "value": -0.049}, {"measurement": "M-CSF", "setting": "1.23E2 nM", "value": -0.028}, {"measurement": "SRB", "setting": "1.23E2 nM", "value": -0.00948}, {"measurement": "SRB-Mphg", "setting": "1.23E2 nM", "value": 0.00118}, {"measurement": "sIL-10", "setting": "1.23E2 nM", "value": -0.100}, {"measurement": "CCL2/MCP-1", "setting": "1.37E1 nM", "value": -0.054}, {"measurement": "CCL3/MIP-1alpha", "setting": "1.37E1 nM", "value": 0.000182}, {"measurement": "CD40", "setting": "1.37E1 nM", "value": -0.054}, {"measurement": "CD62E/E-Selectin", "setting": "1.37E1 nM", "value": -0.144}, {"measurement": "CD69", "setting": "1.37E1 nM", "value": 0.083}, {"measurement": "CD106/VCAM-1", "setting": "1.37E1 nM", "value": 0.0075}, {"measurement": "CXCL8/IL-8", "setting": "1.37E1 nM", "value": 0.000538}, {"measurement": "IL-1alpha", "setting": "1.37E1 nM", "value": -0.006}, {"measurement": "M-CSF", "setting": "1.37E1 nM", "value": -0.041}, {"measurement": "SRB", "setting": "1.37E1 nM", "value": -0.007}, {"measurement": "SRB-Mphg", "setting": "1.37E1 nM", "value": 0.004}, {"measurement": "sIL-10", "setting": "1.37E1 nM", "value": 0.023}, {"measurement": "CCL2/MCP-1", "setting": "3.33E3 nM", "value": -0.091}, {"measurement": "CCL3/MIP-1alpha", "setting": "3.33E3 nM", "value": "-9.82e-5"}, {"measurement": "CD40", "setting": "3.33E3 nM", "value": 0.039}, {"measurement": "CD62E/E-Selectin", "setting": "3.33E3 nM", "value": -0.094}, {"measurement": "CD69", "setting": "3.33E3 nM", "value": 0.200}, {"measurement": "CD106/VCAM-1", "setting": "3.33E3 nM", "value": 0.025}, {"measurement": "CXCL8/IL-8", "setting": "3.33E3 nM", "value": 0.043}, {"measurement": "IL-1alpha", "setting": "3.33E3 nM", "value": -0.044}, {"measurement": "M-CSF", "setting": "3.33E3 nM", "value": -0.021}, {"measurement": "SRB", "setting": "3.33E3 nM", "value": -0.013}, {"measurement": "SRB-Mphg", "setting": "3.33E3 nM", "value": 0.00473}, {"measurement": "sIL-10", "setting": "3.33E3 nM", "value": -0.159}, {"measurement": "CCL2/MCP-1", "setting": "3.70E2 nM", "value": -0.110}, {"measurement": "CCL3/MIP-1alpha", "setting": "3.70E2 nM", "value": -0.009}, {"measurement": "CD40", "setting": "3.70E2 nM", "value": -0.020}, {"measurement": "CD62E/E-Selectin", "setting": "3.70E2 nM", "value": -0.094}, {"measurement": "CD69", "setting": "3.70E2 nM", "value": 0.185}, {"measurement": "CD106/VCAM-1", "setting": "3.70E2 nM", "value": 0.027}, {"measurement": "CXCL8/IL-8", "setting": "3.70E2 nM", "value": 0.00143}, {"measurement": "IL-1alpha", "setting": "3.70E2 nM", "value": -0.030}, {"measurement": "M-CSF", "setting": "3.70E2 nM", "value": -0.017}, {"measurement": "SRB", "setting": "3.70E2 nM", "value": -0.005}, {"measurement": "SRB-Mphg", "setting": "3.70E2 nM", "value": -0.005}, {"measurement": "sIL-10", "setting": "3.70E2 nM", "value": -0.159}, {"measurement": "CCL2/MCP-1", "setting": "4.12E1 nM", "value": -0.089}, {"measurement": "CCL3/MIP-1alpha", "setting": "4.12E1 nM", "value": 0.015}, {"measurement": "CD40", "setting": "4.12E1 nM", "value": -0.055}, {"measurement": "CD62E/E-Selectin", "setting": "4.12E1 nM", "value": -0.120}, {"measurement": "CD69", "setting": "4.12E1 nM", "value": 0.131}, {"measurement": "CD106/VCAM-1", "setting": "4.12E1 nM", "value": -0.013}, {"measurement": "CXCL8/IL-8", "setting": "4.12E1 nM", "value": 0.037}]}]}
